{"source": "patent US6861432B2", "about": "“Piperazine derivatives that destabilize androgen receptors” (Schering Aktiengesellschaft, priority 2001, dated 2005)", "key": {"seminal vesicles": {"test_system": "seminal vesicles", "assay": "Model 4: Antiandrogenic action on testosterone-stimulated growth of accessory sexual glands of castrated mice", "assay_type": "in vivo", "settings": "testosterone propionate 0.03 mg/mouse, test substance 2 × 30 mg/kg s.c., 7 days, CPA 30 mg/kg s.c., bicalutamide from preceding tests", "description": "The function and the size of accessory sexual glands (prostate and seminal vesicles) depend on androgens. In castrated animals, a growth of these (organs is induced by androgen administration. The simultaneous treatment with antiandrogens inhibits this growth, depending on the dose.\nTo examine the test substances, the mice were castrated. The treatment with testosterone propionate (0.03 mg/mouse) and the test substances (formulated 2×daily 30 mg/kg s.c. in benzyl benzoate-castor oil (10:90)) was on the same day. The treatment was carried out over 7 days and at the end of the test, the weights of the seminal vesicles and prostates were determined. The inhibition, in percent, of the seminal vesicle growth was calculated relative to the control groups (with and without testosterone). As a reference substance, cyproterone acetate (30 mg/kg s.c.) was used."}, "androgen receptor": {"biological_target": "T1, androgen receptor (Homo sapiens, UniProt P10275, T878A)", "T1 construct": "2*10^6 LNCaP cells in 6 ml of RPMI 1640 without phenol red are grown; endogenous in cells; host or cells: LNCaP (human prostate cell line)", "T1 sequence (P10275 1-920 T878A)": "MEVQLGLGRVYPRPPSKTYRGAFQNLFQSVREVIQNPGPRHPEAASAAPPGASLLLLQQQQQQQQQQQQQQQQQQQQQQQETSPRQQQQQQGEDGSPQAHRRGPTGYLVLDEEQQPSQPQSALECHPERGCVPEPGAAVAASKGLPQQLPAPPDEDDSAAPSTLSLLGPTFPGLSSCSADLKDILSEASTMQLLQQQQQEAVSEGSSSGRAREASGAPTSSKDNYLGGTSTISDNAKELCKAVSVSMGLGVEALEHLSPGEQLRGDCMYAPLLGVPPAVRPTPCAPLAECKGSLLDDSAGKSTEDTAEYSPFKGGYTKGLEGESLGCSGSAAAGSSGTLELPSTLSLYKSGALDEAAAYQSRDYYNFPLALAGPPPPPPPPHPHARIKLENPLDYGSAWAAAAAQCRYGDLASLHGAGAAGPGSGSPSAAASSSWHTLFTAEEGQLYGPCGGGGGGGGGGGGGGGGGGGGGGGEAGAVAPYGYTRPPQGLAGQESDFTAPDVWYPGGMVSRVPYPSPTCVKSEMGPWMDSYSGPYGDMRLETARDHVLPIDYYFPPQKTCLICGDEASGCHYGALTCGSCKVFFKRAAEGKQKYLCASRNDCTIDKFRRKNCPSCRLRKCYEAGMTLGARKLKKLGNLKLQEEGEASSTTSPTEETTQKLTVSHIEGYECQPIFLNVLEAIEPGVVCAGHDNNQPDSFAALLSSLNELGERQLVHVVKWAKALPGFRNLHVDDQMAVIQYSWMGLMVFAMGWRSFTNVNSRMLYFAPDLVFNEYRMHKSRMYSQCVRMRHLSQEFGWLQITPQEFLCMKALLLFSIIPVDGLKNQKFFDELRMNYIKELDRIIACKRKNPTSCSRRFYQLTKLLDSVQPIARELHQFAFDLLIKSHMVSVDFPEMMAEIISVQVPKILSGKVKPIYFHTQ", "assay": "cell-based", "settings": "for remaining activity at 10 µM / remaining activity at 1 µM: LNCaP; for remaining activity at 10 µM: read-out: AR Content [%] At 10 μM; for remaining activity at 1 µM: read-out: AR Content [%] At 1 μM; for AR Content [%]: R-1881 at 10 nM, percentage of DMSO control"}, "LNCaP cells": {"test_system": "LNCaP cells", "assay": "Model 2: Inhibition of the proliferation of LNCaP cells (crystal violet assay; antagonism with 0.1 nM R1881, agonism without)", "assay_type": "cell-based, human", "settings": "for IC50: LNCaP proliferation in the presence of 0.1 nM R1881, 7-8 days, read-out: IC50 [10^−7 M]; for % Inhibition at 1 μM: LNCaP proliferation, 1 μM substance, compared to cell growth in the presence of 0.1 nM R1881"}}, "data": [{"smiles": "CC(=O)O[C@]1(C(C)=O)CC[C@H]2[C@@H]3C=C(Cl)C4=CC(=O)[C@@H]5C[C@@H]5[C@]4(C)[C@H]3CC[C@@]21C", "note": "[CPA, 17-(acetyloxy)-6-chloro-1β,2β-dihydro-3′H-cyclopropa[1,2]pregna-1,4,6-triene-3,20-dione, reference compound]", "values": [{"measurement": "% Inhibition of the MSB Growth", "setting": "seminal vesicles", "value": 85, "unit": "%"}]}, {"smiles": "CC1=C(CCCCCCN2CCN(S(=O)(=O)c3ccc(C)cc3)CC2)C(=O)N(c2ccc(C#N)c(C(F)(F)F)c2)C1=O", "note": "[Example 297, 4-[2,5-Dihydro-3-methyl-4-[6-[4-[(4-methylphenyl)sulfonyl]piperazin-1-yl]hexyl]-2,5-dioxo-1H-pyrrol-1-yl]-2-(trifluoromethyl)benzonitrile]", "values": [{"measurement": "remaining activity at 10 µM", "setting": "androgen receptor; 48 h", "value": 59, "unit": "%"}]}, {"smiles": "CC1=C(CCCCCCN2CCN(S(=O)(=O)c3ccc(C#N)cc3)CC2)C(=O)N(c2ccc(C#N)c(C(F)(F)F)c2)C1=O", "note": "[Example 300, 4-[3-[6-[4-[(4-Cyanophenyl)sulfonyl]piperazin-1-yl]hexyl]-2,5-dihydro-4-methyl-2,5-dioxo-1H-pyrrol-1-yl]-2-(trifluoromethyl)benzonitrile]", "values": [{"measurement": "remaining activity at 10 µM", "setting": "androgen receptor; 48 h", "value": 35, "unit": "%"}]}, {"smiles": "CC1=C(CCCCCCN2CCN(C(=O)NC(C)C)CC2)C(=O)N(c2ccc(C#N)c(C(F)(F)F)c2)C1=O", "note": "[Example 319, 4-[6-[1-[4-Cyano-3-(trifluoromethyl)phenyl]-2,5-dihydro-4-methyl-2,5-dioxo-1H-pyrrol-3-yl]hexyl]-N-(1-methylethyl)-piperazine-1-carboxamide]", "values": [{"measurement": "remaining activity at 10 µM", "setting": "androgen receptor; 48 h", "value": 74, "unit": "%"}]}, {"smiles": "CC1=C(CCCCCCN2CCN(C(=O)Nc3ccccc3C(F)(F)F)CC2)C(=O)N(c2ccc(C#N)c(C(F)(F)F)c2)C1=O", "note": "[Example 324, 4-[6-[1-[4-Cyano-3-(trifluoromethyl)phenyl]-2,5-dihydro-4-methyl-2,5-dioxo-1H-pyrrol-3-yl]hexyl]-N-[2-(trifluoromethyl)phenyl]piperazine-1-carboxamide]", "values": [{"measurement": "remaining activity at 10 µM", "setting": "androgen receptor; 48 h", "value": 62, "unit": "%"}]}, {"smiles": "CC1=C(CCCCCCN2CCN(C(=O)Nc3cccc(F)c3)CC2)C(=O)N(c2ccc(C#N)c(C(F)(F)F)c2)C1=O", "note": "[Example 326, 4-[6-[1-[4-Cyano-3-(trifluoromethyl)phenyl]-2,5-dihydro-4-methyl-2,5-dioxo-1H-pyrrol-3-yl]hexyl]-N-(3-fluorophenyl)-piperazine-1-carboxamide]", "values": [{"measurement": "remaining activity at 10 µM", "setting": "androgen receptor; 48 h", "value": 45, "unit": "%"}]}, {"smiles": "CC1=C(CCCCCCN2CCN(C(=O)Nc3ccc(F)cc3)CC2)C(=O)N(c2ccc(C#N)c(C(F)(F)F)c2)C1=O", "note": "[Example 330, 4-[6-[1-[4-Cyano-3-(trifluoromethyl)phenyl]-2,5-dihydro-4-methyl-2,5-dioxo-1H-pyrrol-3-yl]hexyl]-N-(4-fluorophenyl)-piperazine-1-carboxamide]", "values": [{"measurement": "remaining activity at 10 µM", "setting": "androgen receptor; 48 h", "value": 46, "unit": "%"}]}, {"smiles": "CSc1cccc(NC(=O)N2CCN(CCCCCCC3=C(C)C(=O)N(c4ccc(C#N)c(C(F)(F)F)c4)C3=O)CC2)c1", "note": "[Example 340, 4-[6-[1-[4-Cyano-3-(trifluoromethyl)phenyl]-2,5-dihydro-4-methyl-2,5-dioxo-1H-pyrrol-3-yl]hexyl]-N-[3-(methylsulfanyl)phenyl]piperazine-1-carboxamide]", "values": [{"measurement": "remaining activity at 10 µM", "setting": "androgen receptor; 48 h", "value": 41, "unit": "%"}]}, {"smiles": "CSc1ccc(NC(=O)N2CCN(CCCCCCC3=C(C)C(=O)N(c4ccc(C#N)c(C(F)(F)F)c4)C3=O)CC2)cc1", "note": "[Example 342, 4-[6-[1-[4-Cyano-3-(trifluoromethyl)phenyl]-2,5-dihydro-4-methyl-2,5-dioxo-1H-pyrrol-3-yl]hexyl]-N-[4-(methylsulfanyl)phenyl]piperazine-1-carboxamide]", "values": [{"measurement": "remaining activity at 10 µM", "setting": "androgen receptor; 48 h", "value": 67, "unit": "%"}]}, {"smiles": "CC1=C(CCCCCCN2CCN(C(=O)Nc3c(F)cccc3F)CC2)C(=O)N(c2ccc(C#N)c(C(F)(F)F)c2)C1=O", "note": "[Example 350, 4-[6-[1-[4-Cyano-3-(trifluoromethyl)phenyl]-2,5-dihydro-4-methyl-2,5-dioxo-1H-pyrrol-3-yl]hexyl]-N-(2,6-difluorophenyl)piperazine-1-carboxamide]", "values": [{"measurement": "remaining activity at 10 µM", "setting": "androgen receptor; 48 h", "value": 61, "unit": "%"}]}, {"smiles": "CC1=C(CCCCCCN2CCN(C(=O)Nc3c(Cl)cccc3Cl)CC2)C(=O)N(c2ccc(C#N)c(C(F)(F)F)c2)C1=O", "note": "[Example 351]", "values": [{"measurement": "AR Content [%] At 10 μM", "setting": "androgen receptor; LNCaP cells, 10 μM test substance, 48 h, AR/actin as percentage of DMSO control", "value": 61, "unit": "%"}]}, {"smiles": "CC1=C(CCCCCCN2CCN(C(=O)Nc3cc(Cl)nc(Cl)c3)CC2)C(=O)N(c2ccc(C#N)c(C(F)(F)F)c2)C1=O", "note": "[Example 365, 4-[6-[1-[4-Cyano-3-(trifluoromethyl)phenyl]-2,5-dihydro-4-methyl-2,5-dioxo-1H-pyrrol-3-yl]hexyl]-N-(2,6-dichloropyridin-4-yl)piperazine-1-carboxamide]", "values": [{"measurement": "remaining activity at 1 µM", "setting": "androgen receptor; 48 h", "value": 82, "unit": "%"}, {"measurement": "remaining activity at 10 µM", "setting": "androgen receptor; 48 h", "value": 36, "unit": "%"}]}, {"smiles": "CC(CN1C(=S)N(c2ccc(C#N)c(C(F)(F)F)c2)C(=O)C1(C)C)N1CCN(C(=O)c2cccs2)CC1", "note": "(centres unmarked) [Example 524, 4-[4,4-Dimethyl-5-oxo-3-[2-[4-[(thien-2-yl)carbonyl]-piperazin-1-yl]propyl]-2-thioxoimidazolidin-1-yl]-2-(trifluoromethyl)benzonitrile]", "values": [{"measurement": "remaining activity at 1 µM", "setting": "androgen receptor; 48 h", "value": 61, "unit": "%"}]}, {"smiles": "CC(C)C(=O)N1CCN(CCCCN2C(=S)N(c3ccc(C#N)c(C(F)(F)F)c3)C(=O)C2(C)C)CC1", "note": "[Example 546, 4-[4,4-Dimethyl-3-[4-[4-(2-methyl-1-oxopropyl)piperazin-1-yl]butyl]-5-oxo-2-thioxoimidazolidin-1-yl]-2-(trifluoromethyl)benzonitrile]", "values": [{"measurement": "% Inhibition of the MSB Growth", "setting": "seminal vesicles", "value": 98, "unit": "%"}, {"measurement": "remaining activity at 1 µM", "setting": "androgen receptor; 48 h", "value": 68, "unit": "%"}]}, {"smiles": "CC1(C)C(=O)N(c2ccc(C#N)c(C(F)(F)F)c2)C(=S)N1CCCCCN1CCN(S(=O)(=O)c2ccc(C#N)cc2)CC1", "note": "[Example 632, 4-[3-[5-[4-[(4-Cyanophenyl)sulfonyl]piperazin-1-yl]pentyl]-4,4-dimethyl-5-oxo-2-thioxoimidazolidin-1-yl]-2-(trifluoromethyl)benzonitrile]", "values": [{"measurement": "remaining activity at 1 µM", "setting": "androgen receptor; 48 h", "value": 75, "unit": "%"}]}, {"smiles": "CC(C)C(=O)N1CCN(CCCCCCN2C(=S)N(c3ccc(C#N)c(C(F)(F)F)c3)C(=O)C2(C)C)CC1", "note": "[Example 653, 4-[4,4-Dimethyl-3-[6-[4-(2-methyl-1-oxopropyl)piperazin-1-yl]hexyl]-5-oxo-2-thioxoimidazolidin-1-yl]-2-(trifluoromethyl)benzonitrile]", "values": [{"measurement": "remaining activity at 1 µM", "setting": "androgen receptor; 48 h", "value": 71, "unit": "%"}]}, {"smiles": "CC(C)(O)C(=O)N1CCN(CCCCCCN2C(=S)N(c3ccc(C#N)c(C(F)(F)F)c3)C(=O)C2(C)C)CC1", "note": "[Example 656]", "values": [{"measurement": "IC50", "setting": "LNCaP cells", "value": 26, "unit": "nM"}, {"measurement": "% Inhibition at 1 μM", "setting": "LNCaP cells", "value": 99, "unit": "%"}]}, {"smiles": "CC1(C)C(=O)N(c2ccc(C#N)c(C(F)(F)F)c2)C(=S)N1CCCCCCN1CCN(C(=O)C(F)(F)F)CC1", "note": "[Example 670, 4-[4,4-Dimethyl-5-oxo-2-thioxo-3-[6-[4-(trifluoracetyl)piperazin-1-yl]hexyl]-imidazolidin-1-yl]-2-(trifluoromethyl)-benzonitrile]", "values": [{"measurement": "IC50", "setting": "LNCaP cells", "value": 24, "unit": "nM"}, {"measurement": "% Inhibition at 1 μM", "setting": "LNCaP cells", "value": 96, "unit": "%"}]}, {"smiles": "CSC(=O)N1CCN(CCCCCCN2C(=S)N(c3ccc(C#N)c(C(F)(F)F)c3)C(=O)C2(C)C)CC1", "note": "[Example 696, S-Methyl 4-[6-[3-[4-cyano-3-(trifluoromethyl)phenyl]-5,5-dimethyl-4-oxo-2-thioxoimidazolidin-1-yl]hexyl]piperazine-1-carbothioate]", "values": [{"measurement": "% Inhibition of the MSB Growth", "setting": "seminal vesicles", "value": 87, "unit": "%"}, {"measurement": "remaining activity at 1 µM", "setting": "androgen receptor; 48 h", "value": 60, "unit": "%"}]}, {"smiles": "C[C@]1(O)CC[C@H]2[C@@H]3CCC4=CC(=O)CCC4=C3C=C[C@@]21C", "note": "[Example R-1881, 17β-hydroxy-17α-methylestra-4,9,11-trien-3-one, reference compound]", "values": [{"measurement": "AR Content [%]", "setting": "androgen receptor; LNCaP cells", "value": 250, "unit": "%"}, {"measurement": "AR Content [%]", "setting": "androgen receptor; LNCaP cells, listed as R1881", "value": "stabilizes the AR protein"}]}]}
